Measured values as given in US8367401B2, “Replication competent hepatitis C virus and methods of use” (Board of Regents, The University of Texas System, priority 1999, dated 2013).

Legend:
[1] = test system: Btat2ANeo(SI) replicon (Con1 HCV) in En5-3 cells; assay: Interferon suppression of SEAP secretion, Btat2ANeo(SI) replicon cell line; format: cell-based, hepatitis C virus
Procedure: (§1) Alkaline phosphatase assay. […] The luminescent signal was read using a TD-20/20 Luminometer (Turner Designs, Inc.). In most time course experiments, the culture medium was replaced every 24 hrs. Thus, the SEAP activity measured in these fluids reflected the daily production of SEAP by the cells.
(§2) Interferon treatment of cell cultures. Selected replicon-bearing cell lines were seeded into 12 well plates. The media was replaced 24 hrs later with fresh, G418 free media containing various concentrations of recombinant interferon-α2B ranging from 0 to 100 units/ml. The medium was subsequently completely removed every 24 hrs, the cells washed, and refed with fresh interferon-containing media. SEAP activity was measured in the media removed from the cells as described above.
(§3) Interferon suppression of HCV RNA replication. […] Recently seeded cell cultures were fed with media containing various concentrations of recombinant interferon-α2B ranging from 0 to 100 units/ml. The medium was subsequently removed completely at 24 hr intervals, and the cells were washed thoroughly and refed with fresh interferon-containing media. […] The decline in intracellular RNA preceded the decreases in SEAP secretion by approximately 24 hrs, most likely reflecting the kinetic delay in tat signaling of SEAP secretion.

[2] = test system: Ntat2ANeo(RG) replicon (HCV-N) in En5-3 cells; assay: Interferon suppression of SEAP secretion, Ntat2ANeo(RG) replicon cell line; format: cell-based, hepatitis C virus
Procedure: as §1, §2, §3

[3] = test system: En5-3 cells; assay: SEAP expression from En5-3 cells without replicon; format: cell-based; conditions: interferon treatment
Text: FIG. 22. Suppression of HCV replicon amplification by interferon-α2b. (A) SEAP activity secreted from cells supporting replication of Btat2ANeo(SI) over successive 24 hr intervals following addition of interferon to the medium. (B) SEAP secretion from Ntat2ANeo(RG) cells. Interferon concentrations were: (*) 100 units/ml; (X) 10 units/ml; (▴) 1 unit/ml; (▪) no interferon. SEAP expression from En5-3 cells without interferon treatment was also shown (♦). SEAP expression from En5-3 cells was not affected by interferon treatment.
as §1

[4] = test system: Et2AN cell line; assay: SEAP secretion by Et2AN control cell line (tat2ANeo under EMCV IRES, no replicon); format: cell-based
Text: as §1
This permits serial measurements of the kinetics of RNA amplification in single cultures of cells (FIG. 21). One potential drawback of this system is that suppression of SEAP activity by candidate antiviral compounds could result from inhibition of the activity of either the 2A protease or tat, or even (as with other published dicistronic HCV replicons) the EMCV IRES. To address this issue, we established a stably transformed cell line that constitutively expresses the tat2ANeo polyprotein under the translational control of the EMCV IRES. This cell line (Et2AN) was established by transfection of pEt2AN DNA (FIG. 16) into En5-3 cells, followed by selection with G418.

[5] = highest concentration of interferon tested, 100 units/ml
[6] = interferon 0 to 100 units/ml, media replaced at 24 hr intervals, stable G418 resistant cell clone

With interferon-α2b the cellular cytotoxicity ([1]; 100 units/ml) was “absence of demonstrable cellular cytotoxicity”, the “SEAP expression over time” value [1, 5] was “SEAP expression declined over time” and the SEAP secretion [1, 6] was “dose-dependent inhibition of SEAP secretion”. For the same substance, the cellular cytotoxicity ([2]; 100 units/ml) was “absence of demonstrable cellular cytotoxicity”, the “SEAP expression over time” value [2, 5] was “SEAP expression declined over time” and the SEAP secretion [2, 6] was “dose-dependent inhibition of SEAP secretion”. For the same substance, the SEAP expression [3] was “not affected”, the “suppression of the secretion of SEAP” value ([4]; comparable concentrations of interferon) was “no suppression” and the nonspecific toxicity ([4]; concentrations of interferon tested) was “absence of nonspecific toxicity”.
